Assays:
[1] = test system: NTR1 cDNA synthesis from total brain RNA; test: In vitro reverse transcription assay; type: biochemical, rat; details: 1 μg total brain RNA incubated with 600 ng PNA
Description: An in vitro reverse transcription assay was performed-as follows. Total RNA was isolated from 20 mg of tissue using the RNeasy Kit (Qiagen, Chatsworth, Calif.). After isolation, total RNA (lug) was incubated with the PNA oligomers (600 ng) at 40° C. for 40 minutes. Exogenous cRNA standards were added, and cDNA was synthesized using the cDNA Cycle Kit and gene-specific primers for NTR1 and GAPDH (Invitrogen, Carlsbad, Calif.). The exogenous cRNA standards were synthesized from dsDNA templates using the Megashort-Script Kit (Ambion, Austin, Tex.). The dsDNA templates for exogenous cRNA standards for the NTR1- and GAPDH-specific cDNA reactions were constructed using the PCR MIMIC Construction Kit (Clontech) and composite primers. […] After using the cDNA Cycle Kit, quantitative PCR was performed on each sample. […] Products were detected using a Storm860 Phosphoimager (Molecular Dynamics, Sunnyvale, Calif.) and data were analyzed using Image Quant Software (Molecular Dynamics, Sunnyvale, Calif.).
Using this in vitro reverse transcription assay, 1 μg of total RNA isolated from the brain of an untreated rat was incubated with 600 ng of the AS-NTR1-PNA or mismatch-AS-NTR1PNA oligomer and NTR1 cDNA production assessed. […]

[2] = test system: [125I]neurotensin binding sites (NT receptors); test: [125I]neurotensin binding assay, PAG and hypothalamus homogenates of treated rats; type: in vivo, rat
Description: Binding assays were done with homogenates from rat PAG and hypothalamus tissue as described elsewhere (Kanba et al., J. Neurochem. 46:946-952 (1986) and Al-Rodhan N.R.F., Brain Res. 557:227-235 (1991)). Tissue concentrations were 1 mg wet weight per tube in a total volume of 100 μl with a final buffer concentration of 0.05 M Tris-HCl (pH 7.4) containing the following compounds to inhibit degradation of peptides: 0.02% (w/v) bovine serum albumin, 2.8 mg/ml bacitracin, 1.0 mM EDTA, 0.5 mM o-phenanthroline, 10 μg/ml pepstatin, 10 μg/ml leupeptin, 10 μg/ml aprotinin, 5 mM benzamidine, 2 mM phenylmethylsulfonylfluoride, and 50 μM bestatin. For each experiment, 80 μl of a thawed membranal suspension was incubated for 25 minutes at 20° C. in a solution containing 0.2 nM [^125I]neurotensin with a final volume of 100 μl. After incubation, the mixture was rapidly filtered to separate bound from unbound radioligand. Each filter was then dried for 2 minutes, placed on a solid scintillation sheet (Wallac Oy, Turku Finland; cat. no. 1205-441), and measured for radioactivity in a beta-plate scintillation counter (Wallac Oy; model # 1205 beta plate). Non-specific binding of [^125I]neurotensin, defined as the binding in the presence of 1 μM neurotensin (−20% of total binding), was subtracted from the total binding to calculate the specific binding.
The LIGAND program was used to analyze all binding data (Munson P. J. and Rodbard D., Analyt. Biochem. 107:220-239 (1980)). Specifically, this program was used to calculate equilibrium dissociation constants and maximal number of binding sites.
The analysis of PAG tissue in experiment 1 was as follows. Four rats were cannulated and treated on days -4, -2, and 0 with either ACSF only or NTR1-PNA as described above. One day after the final treatment, the PAG region of the rat brain was removed, homogenized, and used in the binding assays. Rats treated with ACSF only were used to derive control values for the percent control disintegrations per minute (dpm) and percent control receptors (fmol/mg wet weight). Thus, the values for ACSF only treated rats were set to 100 percent. One day after the final treatment, the PAG region from NTR1-PNA oligomer treated rats expressed 60-70 percent fewer [^125I]neurotensin binding sites than ACSF only treated rats.
In experiment 2, five rats were untreated and used as controls, two recovered rats were treated with ACSF only, and four rats were treated with NTR1-PNA oligomers. The two rats treated with ACSF only are designated as recovered since both rats previously received a single dose of PNA oligomers intraperitoneally (one received NTR1-PNA oligomers and the other MU1R-PNA oligomers). These rats, however, were not used until five days after the intraperitoneal (i.p.) PNA oligomer treatment. Thus, at the time the binding analysis was performed, these rats were completely normal as determined by the behavioral NT-mediated responses and the MOR-mediated response described above. Again, one day after the final treatment, the PAG region from NTR1-PNA oligomer treated rats expressed fewer [^125I]neurotensin binding sites than both the recovered ACSF only treated rats and untreated control rats. In this experiment, the reduction in binding sites was about 20-30 percent of those expressed by the untreated rats.
NT binding sites from the hypothalamus region of the rat brain were also analyzed. In this experiment, the hypothalamus region of rat brain was removed from the same rats used in experiment 2 to analyze the PAG region (five untreated control rats, two recovered ACSF only treated rats, and four NTR1-PNA oligomer treated rats). The untreated rats were used to derive control values. One day after the final treatment, the hypothalamus region from NTR1-PNA oligomer treated rats expressed 40-50 percent fewer [^125I]neurotensin binding sites than untreated control rats. […]

[3] = PAG tissue, Experiment 1, control ACSF only, PAG injections days -4, -2, 0
[4] = PAG tissue, Experiment 2, untreated control

For “NTR1-PNA: 12-mer antisense PNA oligomer to rat NTR1 coding region, 5′-CATTGCTCAAAC-3′ (SEQ ID NO: 1) (all peptide nucleic acid (PNA))”, the “reduction in NTR1 cDNA synthesis” value [1] was 65%, the “% Control receptors” value ([2]; Hypothalamus tissue, untreated control, PNA injected into PAG) was 51 % Control and the “% Control dpm's” value [2, 3] was 41 % Control. The “% Control receptors” value [2, 3] was 32 % Control, the “% Control dpm's” value [2, 4] was 81 % Control and the “% Control receptors” value [2, 4] was 67 % Control. For the same substance, the “fewer [125I]neurotensin binding sites than ACSF only treated rats” value ([2]; PAG, experiment 1, one day after final treatment) was 60-70%, the “reduction in [125I]neurotensin binding sites vs untreated rats” value ([2]; PAG, experiment 2, one day after final treatment) was 20-30% and the “effect of excess PNA added to brain homogenates on the binding assay” value ([2]; excess PNA added in vitro to brain homogenates) was “did not change these results”. For the same substance, the “fewer [125I]neurotensin binding sites than untreated control rats” value ([2]; hypothalamus, one day after final treatment) was 40-50%.

Source: patent US6989270B1, “Using polyamide nucleic acid oligomers to engender a biological response” (Mayo Foundation for Medical Education and Research, priority 1997, dated 2006)
